Measured values from US4272540A, “14-Methoxymorphinan-6-one compounds and therapeutic methods of treating pain and drug dependence with them” (SISA, Incorporated, priority 1979, dated 1981).
Where a name gives a salt, the structure may show the parent alone. Read-outs that look alike come from different tables or passages of the source.

Key:
[1] = Overall agonist/antagonist classification from Table I (Tests A and B); assay type: in vivo, mice (Test A); rats (Test B); settings: from ED50 and AD50 values of Table I
Experimental: (§1) The analgesic effects of test compounds were determined in mice by use of the acetic acid writhing test described by B. J. R. Whittle, Brit. J. Pharmacol., 22:296 (1964). In this test at least three groups of five male CD-1 mice each were given subcutaneous doses of the test drug dissolved in either distilled water or distilled water acidified with HCl depending on the solubility of the compound. In all cases, 0.4 milliliter of a 0.5% V/V acetic acid in distilled water solution was administered intraperitoneally 15 minutes post drug. The number of writhes in a 20 minute interval beginning 5 minutes after the acetic acid injection were determined and compared with the number of writes in control groups which had received only acetic acid.
(§2) The ED50 dose, i.e., the dose required to reduce the number of writhes by 50%, was determined graphically from a plot of % inhibition as a probit versus log dose. Confidence limits of 95% were calculated on the basis of those results falling in the range 16-84% inhibition. See Litchfield, J. T. and Wilcoxon, F., J. Pharmacol. Exp. Ther., 96, 99-113, (1949).
(§3) Male albino Wistar rats (100-120 g) were used for this study. A rat's tail is so placed so as to cover a photocell. Heat is applied by a lamp in a reflector with a timer being connected to the lamp and photocell so that the timer goes on when the light is turned on and is turned off when the photocell is uncovered. A rheostat, incorporated into a heating lamp is used to adjust the intensity of the light falling on the tail of the rat such that the rat's control reaction time is from two to four seconds. Animals with a control reaction time outside this range are rejected. The rheostat adjustment is made only if a significant proportion (more than 2 out of every 10 rats) of the reaction times are outside the range of two to four seconds. Groups of five rats were used each time, and two control times were determined at 60 and 30 minutes prior to subcutaneous injection of the drug.
(§4) Thirty minutes after the last control run the test drug was given interperitoneally. This was followed ten minutes later by an ED80 dose of morphine subcutaneously. The animals were retested at 20 minutes after the morphine injection. Control animals were given vehicle and morphine only. The data were calculated as follows: [formula]
(§5) The data were plotted on log-probit paper and AD50 values, i.e., the dose required to inhibit the morphine effect by 50% within 95% condidence limits, were determined by the method of Litchfield and Wilcoxon.

[2] = system: mice; assay: Test A: acetic acid mouse writhing test (analgesic effects); assay type: in vivo, male CD-1 mice; settings: for ED50: Mus musculus, sc
Experimental: (A) Analgesic effects upon mice (acetic acid writhing test).
as §1
Percent inhibition of writhing was calculated as: [formula]
as §2
(§6) The results of these experiments are set out in Table I where R, R1 and R2 refer to the proceeding general formula for the compounds of the present invention. In the column under R2 CBM stands for cyclobutylmethyl, CPM for cyclopropylmethyl, THF for tetrahydrofurfuryl and DMA for dimethylallyl.

[3] = system: rats; assay: Test B: narcotic antagonist activity (modified rat tail flick test, morphine antagonism); assay type: in vivo, male albino Wistar rats; set-up: key to AD50 (Test B): inactive at dose stated: IA is intended to mean "inactive"; settings: for ED50: Rattus norvegicus; for AD50 (Test B): inactive at dose stated: at 10 mg/kg, interperitoneally
Experimental: (B) Narcotic antagonist activity in rats (modified rat tail flick test).
The narcotic antagonist effects of test compounds were determined by a modification of the rat tail flick procedure of Harris and Pierson (J. Pharmacol. Exp. Ther. 143:141[1964]).
as §3, §4, §5, §6

[4] = prior art report; cited from earlier work
[5] = sc, rats, tail flick, drug interperitoneally 10 min before ED80 morphine s.c., dose inhibiting morphine effect by 50%, read-out: AD50 (Test B, narcotic antagonist activity)
[6] = subcutaneous, 15 min before acetic acid, dose reducing writhes by 50%, read-out: ED50 (Test A, acetic acid mouse writhing test)
[7] = rats, tail flick, drug interperitoneally 10 min before ED80 morphine s.c., dose inhibiting morphine effect by 50%

SMILES	agonist/antagonist profile [1]	ED50 [3, 5] [mg/kg]	ED50 [2, 6] [mg/kg]	AD50 (Test B): inactive at dose stated ([3]; rats, tail flick vs morphine)	further results
COc1ccc2c(c1)[C@]13CCN(CC4CC4)[C@H](C2)[C@]1(OC)[C@@H](C)CC(=O)C3.Cl [TR-5209, 17-Cyclopropylmethyl-3,14-dimethoxy-8β-methylmorphinan-6-one Hydrochloride]	pure narcotic antagonists	0.45	–	–	ED50 (Test A): inactive at dose stated ([2]; at 13 mg/kg, subcutaneous): IA (IA is intended to mean "inactive")
CO[C@@]12[C@@H](C)CC(=O)C[C@@]13CCN(CC1CC1)[C@@H]2Cc1ccc(O)cc13.Cl [TR-5210, 17-Cyclopropylmethyl-3-hydroxy-14-methoxy-8β-methylmorphinan-6-one Hydrochloride]	–	0.004	30	–	agonist/antagonist profile ([1]; Hydrochloride): pure narcotic antagonist; ED50 ([3]; rats, tail flick vs morphine, unit inferred, read-out: AD50 (the source's name)): 0.004 mg/kg; potency as narcotic antagonist relative to naloxone ([3]; naloxone as comparator): 10 times
COc1ccc2c(c1)[C@]13CCN(CC4CCC4)[C@H](C2)[C@]1(OC)[C@@H](C)CC(=O)C3.Cl [TR-5211, 17-Cyclobutylmethyl-3,14-dimethoxy-8β-methylmorphinan-6-one Hydrochloride]	pure narcotic antagonists	0.41	–	–	ED50 (Test A): inactive at dose stated ([2]; at 10 mg/kg, subcutaneous): IA (IA is intended to mean "inactive")
CO[C@@]12[C@@H](C)CC(=O)C[C@@]13CCN(CC1CCC1)[C@@H]2Cc1ccc(O)cc13 [TR-5212, 17-Cyclobutylmethyl-3-hydroxy-14-methoxy-8β-methylmorphinan-6-one Hydrochloride]	pure narcotic antagonists	0.18	–	–	ED50 (Test A): inactive at dose stated ([2]; at 10 mg/kg, subcutaneous): IA (IA is intended to mean "inactive")
COc1ccc2c(c1)[C@]13CCN(CC4CCC4)[C@H](C2)[C@]1(OC)[C@H](C)CC(=O)C3.Cl [TR-5219, 17-Cyclobutylmethyl-3,14-dimethoxy-8α-methylmorphinan-6-one Hydrochloride]	–	–	15.1	IA	ED50 ([2]; writhing, unit inferred, read-out: ED50 value): 15.1 mg/kg; analgesic activity (in words) ([2]; writhing): only a weak analgesic; narcotic antagonist activity (in words) ([3]; rats, tail flick vs morphine): not a narcotic antagonist
CO[C@@]12[C@H](C)CC(=O)C[C@@]13CCN(CC1CCC1)[C@@H]2Cc1ccc(O)cc13 [TR-5249, 17-Cyclobutylmethyl-3-hydroxy-14-methoxy-8α-methylmorphinan-6-one]	–	3	0.14	–	–
CO[C@@]12[C@@H](C)CC(O)C[C@@]13CCN(CC1CC1)[C@@H]2Cc1ccc(O)cc13 (stereo partly drawn) [TR-5250, 17-Cyclopropylmethyl-14-methoxy-8β-methylmorphinan-3,6-diol Hydrochloride]	–	0.32	–	–	ED50 (Test A): inactive at dose stated ([2]; at 10 mg/kg, subcutaneous): IA (IA is intended to mean "inactive"); less active as narcotic antagonist than TR-5210 ([3]; rats, tail flick vs morphine, compared with TR-5210): ~2 orders of magnitude
CO[C@@]12[C@H](C)CC(=O)C[C@@]13CCN(CC1CC1)[C@@H]2Cc1ccc(O)cc13.Cl [TR-5284, 17-Cyclopropylmethyl-3-hydroxy-14-methoxy 8α-methylmorphinan-6-one Hydrochloride]	pure narcotic antagonists	< 3	–	–	ED50 (Test A): inactive at dose stated ([2]; at 10 mg/kg, subcutaneous): IA (IA is intended to mean "inactive"); narcotic antagonist activity (in words) ([3]; rats, tail flick vs morphine): is a narcotic antagonist
CO[C@@]12[C@H](C)CC(O)C[C@@]13CCN(CC1CC1)[C@@H]2Cc1ccc(O)cc13.Cl (stereo partly drawn) [TR-5285, 17-Cyclopropylmethyl-14-methoxy-8α-methylmorphinan-3,6-diol Hydrochloride]	not active as an analgesic or a narcotic antagonist	> 10	> 10	–	–
COc1ccc2c(c1)[C@]13CCN(CC4CCC4)[C@H](C2)[C@]1(OC)CCC(=O)C3 [TR-5296, 17-Cyclobutylmethyl-3,14-dimethoxymorphinan-6-one Hydrochloride]	pure analgesics	–	0.77	1A	–
COc1ccc2c(c1)[C@]13CCN(CC4CC4)[C@H](C2)[C@]1(OC)CCC(=O)C3 [TR-5305, 17-Cyclopropylmethyl-3,14-dimethoxymorphinan-6-one]	mixed analgesic (agonist) and narcotic antagonist activity	–	0.98	–	AD50 (Test B, narcotic antagonist activity) [3, 7]: 1.60 mg/kg
CO[C@@]12CCC(=O)C[C@@]13CCN(CC1CCC1)[C@@H]2Cc1ccc(O)cc13 [TR-5306, 17-Cyclobutylmethyl-3-hydroxy-14-methoxymorphinan-6-one Hydrochloride]	pure analgesics	–	0.007	IA	–
CO[C@@]12[C@H](C)CC(=O)C[C@@]13CCN(CC=C(C)C)[C@@H]2Cc1ccc(O)cc13.Cl [TR-5310, 17-Dimethylallyl-3-hydroxy-14-methoxy-8α-methylmorphinan-6-one Hydrochloride]	pure analgesics	–	0.18	IA	–
CO[C@@]12CCC(=O)C[C@@]13CCN(CC1CC1)[C@@H]2Cc1ccc(O)cc13.Cl [TR-5325, 17-Cyclopropylmethyl-3-hydroxy-14-methoxymorphinan-6-one Hydrochloride]	–	0.35	0.45	–	agonist/antagonist profile ([1]; Hydrochloride): mixed analgesic (agonist) and narcotic antagonist activity
COc1ccc2c(c1)[C@]13CCN(CC4CCCO4)[C@H](C2)[C@]1(OC)CCC(=O)C3.Cl (stereo partly shown) [TR-5326, 3,14-Dimethoxy-17-tetrahydrofurfurylmorphinan-6-one Hydrochloride]	pure analgesics	–	0.16	IA	–
COc1ccc2c(c1)[C@]13CCN(CC4CCCO4)[C@H](C2)[C@]1(OC)[C@H](C)CC(=O)C3.Cl (stereo partly drawn) [TR-5327, 17-Tetrahydrofurfuryl-3,14-dimethoxy-8α-methylmorphinan-6-one Hydrochloride]	pure analgesics	–	1.85	IA	–
CO[C@@]12CCC(=O)C[C@@]13CCN(CC1CCCO1)[C@@H]2Cc1ccc(O)cc13 (stereo partly shown) [TR-5340, 3-Hydroxy-14-methoxy-17-tetrahydrofurfurylmorphinan-6-one]	pure analgesics	–	0.03	IA	–
COc1ccc2c(c1)[C@]13CCN(CC4CC4)[C@H](C2)[C@]1(OC)CCC(=O)C3 [TR-5400, 17-Cyclopropylmethyl-3,14-dimethoxymorphinan-6-one]	–	–	–	–	ED50 (Test A, acetic acid mouse writhing test) ([2]; subcutaneous, 15 min before acetic acid, dose reducing writhes by 50%): 0.89 mg/kg; AD50 (Test B, narcotic antagonist activity) [3, 7]: 0.64 mg/kg
C[C@H]1[C@H]2Cc3ccc(O)cc3[C@]1(C)CCN2CC1CC1 [cyclazocine]	–	–	–	–	analgesic / narcotic antagonist activity (literature) [4]: mixed analgesic/narcotic antagonist activity
